Test results: ChEMBL document CHEMBL5614421, “Structure-activity relationship study of Pseudellone C as anti-glioma agents by targeting TNF/TNFR signaling pathway” (Eur J Med Chem, 2024)
Active and inactive are the calls of the source. The calls are words filed in the database; no cut-off is given here.

Experiments:
U-87 MG [1] = assay: Induction of apoptosis in human U-87 MG cells assessed as late apoptotic cells at 20 uM incubated for 12 hrs by Annexin V-APC/7-AAD staining based flow cytometric analysis (reference value: 3.44 %); format: functional, U-87MG ATCC
LN-229 [2] = assay: Antiproliferative activity against human LN-229 cells assessed as inhibition of cell growth incubated for 68 hrs by CCK-8 assay; format: functional, cell-based; details: LN-229, 68 h
U-87 MG [3] = assay: Induction of apoptosis in human U-87 MG cells assessed as upregulation of cleaved caspase-3 expression incubated for 24 hrs by Western blot analysis; format: functional, cell-based; details: U-87MG ATCC
U-87 MG [4] = assay: Induction of apoptosis in human U-87 MG cells assessed as early apoptotic cells at 20 uM incubated for 24 hrs by Annexin V-APC/7-AAD staining based flow cytometric analysis (reference value: 0.94 %); format: functional, U-87MG ATCC
U-87 MG [5] = assay: Induction of apoptosis in human U-87 MG cells assessed as late apoptotic cells at 20 uM incubated for 48 hrs by Annexin V-APC/7-AAD staining based flow cytometric analysis (reference value: 3.44 %); format: functional, U-87MG ATCC
LN-229 [6] = assay: Induction of apoptosis in human LN-229 cells assessed as early apoptotic cells at 5 uM incubated for 24 hrs by Annexin V-APC/7-AAD staining based flow cytometric analysis (reference value: 0.45 %); format: functional
LN-229 [7] = assay: Induction of apoptosis in human LN-229 cells assessed as late apoptotic cells at 10 uM incubated for 24 hrs by Annexin V-APC/7-AAD staining based flow cytometric analysis (reference value: 3.56 %); format: functional
LN-229 [8] = assay: Induction of apoptosis in human LN-229 cells assessed as viable cells at 20 uM incubated for 48 hrs by Annexin V-APC/7-AAD staining based flow cytometric analysis (reference value: 91.7 %); format: functional; details: read-out: Activity
LN-229 [9] = assay: Induction of apoptosis in human LN-229 cells assessed as viable cells at 20 uM incubated for 24 hrs by Annexin V-APC/7-AAD staining based flow cytometric analysis (reference value: 92.3 %); format: functional; details: read-out: Activity
U-87 MG [10] = assay: Induction of apoptosis in human U-87 MG cells assessed as necrotic cells at 5 uM incubated for 24 hrs by Annexin V-APC/7-AAD staining based flow cytometric analysis (reference value: 0.21 %); format: functional, U-87MG ATCC
U-87 MG [11] = assay: Induction of apoptosis in human U-87 MG cells at 10 uM incubated for 48 hrs by Annexin V-APC/7-AAD staining based flow cytometric analysis (reference value: 5.43 +/- 0.54 %); format: functional, U-87MG ATCC
LN-229 [12] = assay: Induction of apoptosis in human LN-229 cells assessed as necrotic cells at 20 uM incubated for 12 hrs by Annexin V-APC/7-AAD staining based flow cytometric analysis (reference value: 0.7 %); format: functional
LN-229 [13] = assay: Induction of apoptosis in human LN-229 cells at 20 uM incubated for 24 hrs by Annexin V-APC/7-AAD staining based flow cytometric analysis (reference value: 4.47 +/- 1.09 %); format: functional
U-87 MG [14] = assay: Induction of apoptosis in human U-87 MG cells assessed as late apoptotic cells at 10 uM incubated for 24 hrs by Annexin V-APC/7-AAD staining based flow cytometric analysis (reference value: 4.22 %); format: functional, U-87MG ATCC
LN-229 [15] = assay: Induction of apoptosis in human LN-229 cells assessed as late apoptotic cells at 20 uM incubated for 12 hrs by Annexin V-APC/7-AAD staining based flow cytometric analysis (reference value: 5.1 %); format: functional
LN-229 [16] = assay: Induction of apoptosis in human LN-229 cells assessed as late apoptotic cells at 20 uM incubated for 24 hrs in presence of R7050 by Annexin V-APC/7-AAD staining based flow cytometric analysis (reference value: 4.86 %); format: functional
LN-229 [17] = assay: Induction of apoptosis in human LN-229 cells assessed as early apoptotic cells at 20 uM incubated for 12 hrs by Annexin V-APC/7-AAD staining based flow cytometric analysis (reference value: 2.46 %); format: functional
U-87 MG [18] = assay: Induction of apoptosis in human U-87 MG cells assessed as late apoptotic cells at 20 uM incubated for 24 hrs by Annexin V-APC/7-AAD staining based flow cytometric analysis (reference value: 7.7 %); format: functional, U-87MG ATCC
U-87 MG [19] = assay: Induction of apoptosis in human U-87 MG cells at 20 uM incubated for 24 hrs in presence of R7050 by Annexin V-APC/7-AAD staining based flow cytometric analysis relative to control; format: functional, U-87MG ATCC
LN-229 [20] = assay: Induction of apoptosis in human LN-229 cells assessed as late apoptotic cells at 20 uM incubated for 24 hrs by Annexin V-APC/7-AAD staining based flow cytometric analysis (reference value: 3.56 %); format: functional
[21] = Drug concentration in C57BL/6J mouse brain at 9 mg/kg,iv administration measured after 15 mins by LC-MS analysis; format: ADME, organism-based; details: read-out: Ct
U-87 MG [22] = assay: Induction of apoptosis in human U-87 MG cells assessed as viable cells at 20 uM incubated for 24 hrs by Annexin V-APC/7-AAD staining based flow cytometric analysis (reference value: 85 %); format: functional, U-87MG ATCC; details: read-out: Activity
U-87 MG [23] = assay: Induction of apoptosis in human U-87 MG cells assessed as late apoptotic cells at 5 uM incubated for 24 hrs by Annexin V-APC/7-AAD staining based flow cytometric analysis (reference value: 4.22 %); format: functional, U-87MG ATCC
LN-229 [24] = assay: Induction of apoptosis in human LN-229 cells assessed as late apoptotic cells at 20 uM incubated for 24 hrs by Annexin V-APC/7-AAD staining based flow cytometric analysis (reference value: 5.1 %); format: functional
U-87 MG [25] = assay: Induction of apoptosis in human U-87 MG cells assessed as reduction in Bcl-2/Bax ratio at 5 to 20 uM incubated for 24 hrs by Western blot analysis; format: functional, cell-based; details: U-87MG ATCC, dose 5-20 µM
LN-229 [26] = assay: Induction of apoptosis in human LN-229 cells assessed as viable cells at 20 uM incubated for 24 hrs in presence of R7050 by Annexin V-APC/7-AAD staining based flow cytometric analysis (reference value: 92.3 %); format: functional; details: read-out: Activity
LN-229 [27] = assay: Induction of apoptosis in human LN-229 cells assessed as viable cells at 5 uM incubated for 24 hrs by Annexin V-APC/7-AAD staining based flow cytometric analysis (reference value: 95.4 %); format: functional; details: read-out: Activity
U-87 MG [28] = assay: Induction of apoptosis in human U-87 MG cells assessed as early apoptotic cells at 20 uM incubated for 24 hrs by Annexin V-APC/7-AAD staining based flow cytometric analysis (reference value: 3.44 %); format: functional, U-87MG ATCC
U-87 MG [29] = assay: Induction of apoptosis in human U-87 MG cells assessed as viable cells at 20 uM incubated for 24 hrs by Annexin V-APC/7-AAD staining based flow cytometric analysis (reference value: 94.6 %); format: functional, U-87MG ATCC; details: read-out: Activity
LN-229 [30] = assay: Induction of apoptosis in human LN-229 cells assessed as early apoptotic cells at 20 uM incubated for 24 hrs by Annexin V-APC/7-AAD staining based flow cytometric analysis (reference value: 0.45 %); format: functional
LN-229 [31] = assay: Induction of apoptosis in human LN-229 cells assessed as early apoptotic cells at 20 uM incubated for 24 hrs in presence of R7050 by Annexin V-APC/7-AAD staining based flow cytometric analysis (reference value: 0.91 %); format: functional
U-87 MG [32] = assay: Induction of apoptosis in human U-87 MG cells assessed as necrotic cells at 20 uM incubated for 12 hrs by Annexin V-APC/7-AAD staining based flow cytometric analysis (reference value: 1 %); format: functional, U-87MG ATCC

In the case of `CCCCCCCNC(=O)[C@H](Cc1c[nH]c2ccccc12)NC(=O)C(C)(c1c[nH]c2ccccc12)c1c[nH]c2ccccc12`, the Activity (U-87 MG [1]) is reported as 3.62%, the IC50 (LN-229 [2]) is reported as 10.8 µM and the Activity (U-87 MG [3]) is reported as “Dose-Dependent Effect”. The Activity (U-87 MG [4]) was 2.6%, the Activity (U-87 MG [5]) was 11.6% and the Activity (LN-229 [6]) was 0.82%. The Activity (LN-229 [7]) was 6.38%, the viability at 20 µM (LN-229 [8]) was 37.7% and the viability at 20 µM (LN-229 [9]) was 66.2%. The Activity (U-87 MG [10]) was 0.14%, the Activity (U-87 MG [11]) was 17.37% and the Activity (LN-229 [12]) was 1.45%. It also gave an Activity (LN-229 [13]) of 21.2%, an Activity (U-87 MG [14]) of 6.16% and an Activity (LN-229 [15]) of 4.06%. The Activity (LN-229 [16]) was 5.88%, the Activity (LN-229 [17]) was 1.76% and the Activity (U-87 MG [18]) was 10%. The Activity (U-87 MG [19]) was 9.37%, the Activity (LN-229 [20]) was 4.99% and the concentration at 0.25 h [21] was 91 ng/g. For the same molecule, the viability at 20 µM (U-87 MG [22]) was 65.1%, the Activity (U-87 MG [23]) was 4.92% and the Activity (LN-229 [24]) was 4.38%. For the same molecule, the Activity (U-87 MG [25]) was “Active”, the viability at 20 µM (LN-229 [26]) was 91.4% and the viability at 5 µM (LN-229 [27]) was 95%. It also gave an Activity (U-87 MG [28]) of 16.8%, a viability at 20 µM (U-87 MG [29]) of 92% and an Activity (LN-229 [30]) of 13.8%. It also gave an Activity (LN-229 [31]) of 1.48% and an Activity (U-87 MG [32]) of 1.01%.
